Experiment [1] deals with THP-1 cells. The experiment in a line: DNA damage by γ-H2A.X foci and western blot in THP-1 cells. Format: cell-based, human. To be noted: for number of γ-H2A.X foci compared to untreated cells: single agent, Bleomycin 5 μM, Doxorubicin 0.1 μM, Etoposide 0.1 μM. The protocol: DNA damage evaluation by analysis of γ-H2A.X foci. […] Lower panels show γ-H2A.X signals only. […] In FIG. 6C, DNA damage was assessed by γ-H2A.X western blot in drug-treated THP-1 cell extracts.
FIG. 10B is a series of images showing immunofluorescence microscopy of γ-H2A.X foci in untreated or drug-treated (Doxorubicin 0.1 μM, palbociclib 500 nM) THP-1 cells. γ-H2A.X light gray, DAPI dark gray. In FIG. 10C, apoptosis was analyzed by Caspase 3/7 activity by flow cytometry.
The role of chromatin structure in cytotoxic agent-induced DNA damage was also assessed by investigating the formation of γ-H2A.X foci by confocal microscopy.

In experiment [2] the test system is Y641 and A677 mutants of EZH2. The settings on record: cited from earlier work.
For the next experiment, the system named is H3K27me3 in THP-1 cells. The experiment in a line: H3K27me3 levels in THP-1 cells (CAA, western blot, ChIP-seq). The format is cell-based, human. How it is done:
(§1) FIGS. 4A-4B illustrate the ability of EZH2 inhibitor to affect H3K27me3 binding. […] Cells were labeled with EdU for 15 minutes. CAA was performed with H3K27me3 antibody. Following PLA, cells were immunostained for EdU.
(§2) Box plot of ChIP-seq read density is shown. FIG. 14B is an example showing the COL93A locus.
(§3) Chromatin assembly assay: Cells were grown on chamber slides, pulse-labeled with 5 μM EdU and fixed at room temperature with 4% formaldehyde in PBS for 15 min, washed with PBS, and permeabilized with 0.3% Triton for 15 min. Cells were subjected to Click-iT reaction with biotin-azide for 30 min. The PLA reactions (Olink) between the anti-biotin antibody and antibodies to other proteins were performed as described by Olink. Following PLA, cells were immunostained with anti-biotin Alexa Fluor 488 antibody to control the specificity of CAA. The results of CAA experiments shown in FIG. 1A were quantified by counting the number of PLA signals per EdU-labeled nuclei in 50 cells of each of the three independent experiments. The nature of the results in the rest of the figures alleviated the need to quantify the results of these assays.
(§4) Since DNA-damaging agents (eg., Doxorubicin) preferentially induce double strand breaks (DSBs) in more de-condensed regions of chromatin, some epigenetic inhibitors may render leukemic cells more susceptible to DNA damage. […]
(In general: Immunoblotting shows a protein as a band on a membrane.)

In experiment [3] the test system is H3K27me3 in AML primary cells. The experiment in a line: H3K27me3 on nascent DNA of AML primary cells (CAA, western blot). Format: cell-based, human. The settings on record: GSK126 for 12 hours. How it is done: as §1, §3, §4
Experiment [4] concerns THP-1 cells. The experiment in a line: Comet assay in drug-treated THP-1 cells. The format is cell-based, human. To be noted: co-treatment with GSK126 and Doxorubicin.
For experiment [5], the system named is THP-1 cells. The experiment in a line: RAD51 foci formation in Doxorubicin-treated THP-1 cells. The format is cell-based, human. To be noted: GSK126 5 μM, Doxorubicin 0.1 μM; 12, 24, 36, 72 hrs. An excerpt:
FIG. 7 illustrates the kinetics of RAD51 foci formation in Doxorubicin-treated THP-1 cells. […] RAD51 foci were detected by immunofluorescence in the pre-washed cultures (12 hrs), and at 24, 36, and 72 hrs post Doxorubicin washing.

For another experiment, the system named is primary CD34+ AML cells. The experiment in a line: γ-H2A.X foci and comet assay in primary CD34+ AML cells. Format: cell-based, human. To be noted: co-treated with GSK126 (5 μM) and Doxorubicin (0.3 or 0.1 μM), 24 h. The text has this:
FIGS. 8A-8D illustrate that inhibition of EZH2 enhances DNA damage as assessed by γ-H2A.X foci and comet assay in primary CD34+ AML cells. […] Immunofluorescence microscopy of γ-H2A.X foci (representative cells). γ-H2A.X light gray, DAPI, dark gray. Lower panels show γ-H2A.X signals only. […] Immunofluorescence microscopy of γ-H2A.X foci (representative cells). γ-H2A.X light gray, DAPI, dark gray. Lower panels show γ-H2A.X signals only.

Experiment [6] relates to THP-1 cells. The experiment in a line: Apoptosis by Caspase-3/7 activity (flow cytometry) in THP-1 cells. The format is cell-based, human. How it is done: (§5) FIGS. 9A-9B illustrate apoptosis of drug-treated cells. THP-1 (FIG. 9A) and primary CD34+ AML samples (FIG. 9B) were left untreated (CNTR), treated with Doxorubicin alone (0.1 μM), Etoposide alone (0.5 μM) or in combination with the EZH2 inhibitor GSK-126 (0.5 μM) for 48 hours. Apoptosis was analyzed by Caspase-3/7 activity by flow cytometry.
FIGS. 10A-10C illustrate that treatment with the CDK4/CDK6 inhibitor palbociclib suppresses Doxorubicin-induced DNA damage. […] FIG. 10B is a series of images showing immunofluorescence microscopy of γ-H2A.X foci in untreated or drug-treated (Doxorubicin 0.1 μM, palbociclib 500 nM) THP-1 cells. γ-H2A.X light gray, DAPI dark gray. In FIG. 10C, apoptosis was analyzed by Caspase 3/7 activity by flow cytometry.
THP-1 cells were treated with Palbociclib (500 nM) for 24 hours to induce a G1-arrest. […] Anova ***p<0.001; (Right) Apoptosis analyzed by Caspase 3/7 activity by flow cytometry. Mean+/−SEM. Anova; *p<0.1 **p<0.01
To assess whether cell cycle synchronization through pre-conditioning with a CDK4/6 inhibitor prior to treatment, a subsequent study was performed in which THP-1 cells were treated with Palbociclib (500 nM) for 24 hours to induce a G1-arrest. […] (FIG. 15, Right) Apoptosis of treated cells was also analyzed by Caspase 3/7 activity by flow cytometry.
(In general: In flow cytometry, cells or beads pass a laser one at a time.)

Experiment [7] deals with primary CD34+ AML samples. The experiment is described as follows: Apoptosis by Caspase-3/7 activity (flow cytometry) in primary CD34+ AML samples. Format: cell-based, human. To be noted: CD34+ AML cells, co-treatment GSK-126 (0.5 μM) and Doxorubicin (0.1 μM), 48 hours. How it is done:
as §5

Experiment [8] concerns THP-1 and human CD34+ primary AML cells. The experiment in a line: DNA content analysis and myeloid marker flow cytometry of AML cells. Format: cell-based. The settings on record: GSK126 alone.
The subject of experiment [9] is primary ASXL1-mutated AML sample. The experiment in a line: γ-H2A.X foci in primary ASXL1-mutated AML sample. Format: cell-based, human. To be noted: CD34+ cells with frameshift ASXL1 mutation (G646fs*12); co-treatment with GSK126 (5 nM), 24 hours. The protocol:
FIGS. 13A-13B illustrate accumulation of H3K27me3 on nascent DNA of a human primary ASXL1 mutated AML sample. In FIG. 13A, DNA was labeled with EdU for 15 minutes. Following conjugation with biotin, CAA was performed between nascent DNA (biotin) and H3K27me3. PLA (bright gray), Edu (biotin; light gray), DAPI; dark gray). Lower panels show PLA signals only. […] DNA Damage evaluation by analysis of γ-H2A.X foci. […] Immunofluorescence microscopy of γ-H2A.X foci (representative cells). γ-H2A.X light gray, DAPI, dark gray. Lower panels show γ-H2A.X signals only.
Mutations of ASXL1 are more frequent than EZH2 mutations and may cause a decrease in global H3K27me3 level and in the accumulation of this marker on nascent DNA. The H3K27me3 marker was not detected on Edu-labeled, nascent DNA of CD34+ […] cells carrying a frameshift ASXL1 mutation causing a premature termination (G646fs*12) in ˜50% of the cells, favoring a state of ‘open’ chromatin (FIGS. 13A and 13B).

Experiment [10] has as its system THP-1 cells. The experiment is described as follows: ChIP-seq of γ-H2A.X in THP-1 cells. Format: cell-based, human. To be noted: THP-1 cells co-treated with GSK126.
Excerpt: as §2
Without wishing to be bound by theory, a more relaxed chromatin structure may be more susceptible to DNA damage.

Experiment [11] has as its system primary blasts from AML patient #22324. The experiment is described as follows: CAA (PLA) between EdU-labeled DNA and ATRIP at sites of DNA damage. The format is cell-based, human. To be noted: GSK343 12 hours, then 10 μM Bleomycin 1 hr.
Protocol: Cells were labeled with EdU for 10 minutes and treated with 10 μM Bleomycin (Bleo) for 1 hr. CAA (PLA, dark) was performed between EdU and ATRIP protein. Chromatin assembly assay: Cells were grown on chamber slides, pulse-labeled with 5 μM EdU and fixed at room temperature with 4% formaldehyde in PBS for 15 min, washed with PBS, and permeabilized with 0.3% Triton for 15 min. Cells were subjected to Click-iT reaction with biotin-azide for 30 min. The PLA reactions (Olink) between the anti-biotin antibody and antibodies to other proteins were performed as described by Olink. Following PLA, cells were immunostained with anti-biotin Alexa Fluor 488 antibody to control the specificity of CAA. The results of CAA experiments shown in FIG. 1A were quantified by counting the number of PLA signals per EdU-labeled nuclei in 50 cells of each of the three independent experiments.

As for `COc1cccc2c1C(=O)c1c(O)c3c(c(O)c1C2=O)C[C@@](O)(C(=O)CO)C[C@@H]3O[C@H]1C[C@H](N)[C@H](O)[C@H](C)O1` [Doxorubicin], the “number of γ-H2A.X foci compared to untreated cells” value in the experiment on THP-1 cells [1] (24 hours) is reported as “markedly increased”.
For `Cc1cc(C)c(CNC(=O)c2cc(-c3ccc(CN4CCOCC4)cc3)cc3c2cnn3C2CCCC2)c(=O)[nH]1` [EPZ005687], in experiment [2], the “inhibition of the Y641 and A677 mutants of EZH2” value was “can also inhibit”.
As to `CC[C@H](C)n1cc(C)c2c(C(=O)NCc3c(C)cc(C)[nH]c3=O)cc(-c3ccc(N4CCNCC4)nc3)cc21` [GSK126], the “chromatin conformation (H3K27me3 on nascent DNA, CAA)” value (in the experiment on H3K27me3 in THP-1 cells (GSK126 for 12 hours); in experiment [3]) was “switching the chromatin conformation from “closed” to “open”” in each case. Further, the “global levels of H3K27me3 (ChIP-seq)” value in the experiment with H3K27me3 in THP-1 cells (GSK126 for 24 hours) is on record as “marked decrease”. Also, the “number and mean fluorescence intensity of γ-H2A.X foci and γ-H2A.X levels” value with THP-1 cells [1] (co-treatment of GSK126 (5 μM) with bleomycin, Doxorubicin or etoposide, 24 hours, vs cytotoxic agent alone) is “further increased”. In addition, the “DNA damage by comet assay” value in the experiment on THP-1 cells [4] is on record as “Increased DNA damage”. Besides, in the experiment on THP-1 cells [5], the “number of RAD51 foci (DSBs repair) following Doxorubicin-induced DNA damage” value is “not diminished”. In the experiment with primary CD34+ AML cells, the “DNA damage (γ-H2A.X foci and comet assay)” value is “Higher levels of DNA damage”. The “apoptosis (Caspase-3/7 activity)” value in the experiment with THP-1 cells [6] (THP-1, co-treatment GSK-126 (0.5 μM) and Doxorubicin (0.1 μM), 48 hours) was “enhanced apoptosis”; in experiment [7], “enhanced apoptosis”. In addition, the “DNA damage/apoptosis induced by treatment with Ara-C only” value in the experiment on THP-1 cells [6] (THP-1 cells ex vivo, GSK126 with Ara-C) is on record as “did not enhance”. For the same compound, in experiment [8] (48 hrs, THP-1 and CD34+ primary AML cells), the “proliferation of AML cells (DNA content analysis)” value was “no effect”. Besides, the “differentiation of AML cells (myeloid marker expression)” value in experiment [8] (5 days, AML #013 cells) is given as “no effect”. Moreover, the “Doxorubicin-induced DNA damage (γ-H2A.X foci)” value in experiment [9] is listed as “did not increase”. Further, the “Doxorubicin-induced γ-H2A.X signals (ChIP-seq)” value with THP-1 cells [10] is “increased”.
As for `CCCc1cc(C)[nH]c(=O)c1CNC(=O)c1cc(-c2ccnc(N3CCN(C)CC3)c2)cc2c1cnn2C(C)C` [GSK343], the “recruitment of ATRIP to sites of DNA damage induced by bleomycin” value in [11] is given as “significantly increased recruitment of ATRIP”.
Regarding `CCOC(=O)CCNc1cc(N2CCc3ccccc3CC2)nc(-c2ccccn2)n1` [GSKJ4], in the experiment on THP-1 cells [1] (THP-1 cells treated with GSKJ4), the “enhancement of Doxorubicin-induced DNA damage” value was “did not enhance”.
For the compound `COc1cc([C@@H]2c3cc4c(cc3[C@@H](O[C@@H]3O[C@@H]5CO[C@@H](C)O[C@H]5[C@H](O)[C@H]3O)[C@H]3COC(=O)[C@H]23)OCO4)cc(OC)c1O` [etoposide], the “number of γ-H2A.X foci compared to untreated cells” value in the experiment on THP-1 cells [1] (24 hours) was “markedly increased”.
The same measure, in the same setting: the result for bleomycin reads “markedly increased”.

Values taken from patent publication US20220354845A1, “METHODS FOR ENHANCING DNA DAMAGE AND APOPTOSIS OF LEUKEMIC CELLS” (Thomas Jefferson University, priority 2019, published 2022).
